Article PMC8248988, “A signal capture and proofreading mechanism for the KDEL-receptor explains selectivity and dynamic range in ER retrieval” (eLife, 2021)

Tested on: ERP72
Experiment: ER chaperone secretion assay, ERP72
Format: cell-based, human
From the text: Figure 1. ER retrieval signal abundance and affinity are not correlated. (a) Sequence logos for ER resident proteins with C-terminal KDEL retrieval signals and variants thereof calculated using frequency or protein abundance ([Itzhak et al., 2017]; [Itzhak et al., 2016]). (b) Combined cellular concentrations of ER resident proteins with canonical KDEL, RDEL, and HDEL retrieval sequences in HeLa cells and mouse brain. (c) Competition binding assays for [^3H]-TAEHDEL and unlabelled TAEKDEL, TAERDEL, and TAEHDEL to the KDEL receptor. IC50 values for the competing peptides were used to calculate the apparent KDwith the Cheng-Prusoff equation ([Cheng and Prusoff, 1973]). (d) Endogenous KDEL receptor redistribution was measured in COS-7 cells in the absence (-ligand) or presence of K/R/H/A/DDEL (mScarlet-xDEL^sec). TGN46 was used as a Golgi marker. Scale bar is 10 µm. […] The individual data points for the fraction of KDEL receptor fluorescence in the Golgi are plotted on the upper axes with sample sizes and p values. […] Endogenous ER chaperone secretion was measured by western blotting after challenge with different retrieval signals, and plotted as a bar graph showing mean ± SEM (n = 3). […] (a) Distribution of human KDELR1 and (b) KDELR2 was measured in COS-7 cells in the absence (-ligand) or presence of K/R/H/A/DDEL retrieval signals (K/R/H/A/DDEL^sec). […]

ADEL [pcDNA3.1 hGHss-mScarlet-H. sapiens BiP639-654K651A (ADEL^SEC), secreted mScarlet fusion with human BiP C-terminus, ADEL signal]
ERP72 secretion after challenge with retrieval signal (mean, HeLa S3, 24 hr, Western blot densitometry): 4.2 | ERP72 secretion after challenge with retrieval signal (replicate 2): 1.0
